Results on two molecules are retold here after BindingDB's records for doi:10.1074/jbc.M113.510743 (Max Planck Institute of Biophysics, 2014).

In this experiment the target is T1, APC family lysine-specific permease (Salmonella typhimurium (strain LT2 / SGSC1412 / ATCC 700720), UniProt Q8ZNK9).
T1 sequence (Q8ZNK9 whole entry): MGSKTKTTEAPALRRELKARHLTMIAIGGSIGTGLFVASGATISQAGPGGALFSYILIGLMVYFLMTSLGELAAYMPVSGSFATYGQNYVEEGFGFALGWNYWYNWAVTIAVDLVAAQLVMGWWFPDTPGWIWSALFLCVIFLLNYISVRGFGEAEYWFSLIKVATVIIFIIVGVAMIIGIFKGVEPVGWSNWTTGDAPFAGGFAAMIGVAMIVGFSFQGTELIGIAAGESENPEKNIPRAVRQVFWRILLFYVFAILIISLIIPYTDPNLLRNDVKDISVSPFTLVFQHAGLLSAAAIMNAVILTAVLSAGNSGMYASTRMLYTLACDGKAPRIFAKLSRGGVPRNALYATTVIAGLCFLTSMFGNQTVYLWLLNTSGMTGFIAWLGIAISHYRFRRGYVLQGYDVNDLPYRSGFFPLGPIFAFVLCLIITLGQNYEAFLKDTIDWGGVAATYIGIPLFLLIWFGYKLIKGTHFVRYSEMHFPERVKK
The experiment can be described thus: Isothermal Titration Calorimetry (ITC). The settings on record: pH 5.9; 20 °C. The method, then: ITC measurements were carried out at 20 °C with a VP-ITC calorimeter (GE Healthcare, MicroCal, Inc.) consisting of a 1.45-ml reaction cell. STM2200 in 20 mM MES-NaOH, 150 mM NaCl, 0.025% (w/v) β-DDM, pH 5.9 at concentrations ranging between 15 and 30 μM was titrated with ligands under conditions where the sum of the ionic strengths of ligand and NaCl was always 150 mM. After an initial 4-μl injection, all subsequent ligand additions consisted of 5 μl every 240-300 s. Stirring was at 307 rpm.
A general note: ITC needs no label: the signal is the heat of the interaction.

What is called Kd is the equilibrium constant for the complex coming apart. A low value points to tighter binding.

For the molecule `NCCCC[C@H](N)C(=O)O` [(2S)-2,6-diaminohexanoic acid], the affinity, expressed as Kd, was 40 µM.

In turn, `NCCCC[C@@H](N)C(=O)O` [(2R)-2,6-diaminohexanoic acid] had a Kd of 1800 µM.
